Drawing on ChEMBL document CHEMBL1681786, “Synthesis, biological evaluation and 3D-QSAR studies of 3-keto salicylic acid chalcones and related amides as novel HIV-1 integrase inhibitors” (Bioorg Med Chem, 2011), this text covers IC50, EC50 and EC90 for 55 molecules.

For experiment [1], the target named is T1, Human immunodeficiency virus type 1 integrase (Human immunodeficiency virus 1, UniProt Q7ZJM1). The experiment is described as follows: Inhibition of Human immunodeficiency virus 1 integrase-mediated 3'-processing after 30 mins by polyacrylamide gel electrophoresis.
T1 sequence (Q7ZJM1 whole entry): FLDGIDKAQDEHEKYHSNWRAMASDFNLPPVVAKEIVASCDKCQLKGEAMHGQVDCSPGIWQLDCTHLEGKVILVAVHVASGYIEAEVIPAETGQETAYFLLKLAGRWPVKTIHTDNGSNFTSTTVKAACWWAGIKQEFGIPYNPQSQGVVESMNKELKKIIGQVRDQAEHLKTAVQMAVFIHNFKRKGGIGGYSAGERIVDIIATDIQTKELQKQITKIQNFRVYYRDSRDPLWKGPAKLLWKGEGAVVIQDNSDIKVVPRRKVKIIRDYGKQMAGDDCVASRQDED
In experiment [2] the target is T1, Human immunodeficiency virus type 1 integrase. The experiment is described as follows: Inhibition of Human immunodeficiency virus 1 integrase strand transfer activity after 30 mins by polyacrylamide gel electrophoresis.
In another experiment the test system is PBMC. The experiment is described as follows: Cytotoxicity against human PBMC after 6 days by trypan blue assay. To be noted: 144 h.
For another experiment, the system named is CCRF-CEM. The experiment is described as follows: Cytotoxicity against human CEM cells after 6 days by trypan blue assay. The settings on record: 144 h.
In experiment [3] the test system is Human immunodeficiency virus 1. The experiment is described as follows: Antiviral activity against Human immunodeficiency virus 1 LAI infected in human PBMC assessed as inhibition of viral replication after 5 days by reverse transcriptase assay. The class given is functional, organism-based. To be noted: 120 h.

SMILES strings stand for the structures.

`COc1cccc(/C=C/C(=O)c2cc(Br)cc(C(=O)O)c2O)c1OC`: the IC50 in experiment [1] was 62 µM; in experiment [2], 34 µM.

Take `O=C(O)c1cc(Br)cc(C(=O)/C=C/c2ccc(I)cc2)c1O`: the IC50 stood at 69 µM in experiment [1] and 35 µM in experiment [2].

Consider `O=Cc1cc(Br)cc(C(=O)NCc2ccc(F)cc2)c1O`, for which the IC50 in the experiment with PBMC is 44 µM; in experiment [1], > 100 µM; in the experiment on CCRF-CEM, 40.2 µM; in experiment [2], 8 µM. In addition, the EC50 in experiment [3] came to 30.8 µM. The EC90 in experiment [3] was 52.7 µM.

For `O=C(O)c1cc(Br)cc(C(=O)/C=C/c2cc3c(cc2Cl)OCO3)c1O`, the IC50 stood at 79 µM in experiment [1] and 63 µM in experiment [2].

As for `Cc1cc(C)cc(/C=C/C(=O)c2cc(Br)cc(C(=O)O)c2O)c1`, the half-maximal inhibitory concentration (IC50) in experiment [1] was > 100 µM; in experiment [2], 58 µM.

Regarding `O=C(O)c1cc(Br)cc(C(=O)/C=C/c2cccc(OC(F)(F)F)c2)c1O`, the IC50 in experiment [1] was > 100 µM; in experiment [2], 52 µM.

For `O=C(O)c1cc(Br)cc(C(=O)/C=C/c2cccc([N+](=O)[O-])c2)c1O`, the IC50 in experiment [1] was 49 µM; in experiment [2], 32 µM.

For the molecule `O=C(O)c1cc(Br)cc(C(=O)/C=C/c2ccc(Br)cc2)c1O`, the IC50 in the experiment on PBMC came to 24.4 µM; in experiment [1], 11 µM; with CCRF-CEM, 27.5 µM; in experiment [2], 5 µM. Besides, the EC50 in experiment [3] amounted to 8.7 µM. Besides, the EC90 in experiment [3] amounted to 21 µM.

For the molecule `COc1cccc2c(/C=C/C(=O)c3cc(Br)cc(C(=O)O)c3O)cccc12`, half-maximal inhibition in experiment [1] (IC50) required 54 µM.

For the molecule `O=C(O)c1cc(Br)cc(C(=O)/C=C/c2cccc(Br)c2)c1O`, the IC50 in experiment [1] is 19 µM; in experiment [2], 18 µM.

Regarding `O=C(NCc1ccc(F)cc1)c1cc(Br)ccc1O`, the IC50 in experiment [1] and in experiment [2] was > 100 µM in each case.

As to `O=C(O)c1cc(Br)cc(C(=O)/C=C/c2ccccc2)c1O`, the IC50 in experiment [1] was 75 µM; in experiment [2], 25 µM.

As to `COc1cc(F)c(/C=C/C(=O)c2cc(Br)cc(C(=O)O)c2O)cc1OC`, the IC50 in experiment [1] was > 100 µM; in experiment [2], 76 µM.

On to `COc1ccc(/C=C/C(=O)c2cc(Br)cc(C(=O)O)c2O)c(OC)c1OC`, for which the IC50 in experiment [1] was determined as 85 µM; in experiment [2], 51 µM.

With `O=C(O)c1cc(F)cc(C(=O)/C=C/c2ccc(Cl)cc2Cl)c1O`, the IC50 stood at 52 µM in experiment [1] and 24 µM in experiment [2].

`O=C(O)c1cc(Cl)cc(C(=O)/C=C/c2cc(Cl)ccc2Cl)c1O`: the IC50 in experiment [1] turned out to be 75 µM; in experiment [2] it was 25 µM.

With `Cc1cc(C(=O)O)c(O)c(C(=O)/C=C/c2c(Cl)ccc(Cl)c2Cl)c1`, the IC50 is > 100 µM in experiment [1] and 50 µM in experiment [2].

`O=C(O)c1cc(Br)cc(C(=O)/C=C/c2ccc(Cl)cc2Cl)c1O`: the IC50 came to 22.1 µM in the experiment on PBMC, 28 µM in experiment [1], 23.8 µM in the experiment on CCRF-CEM and 7 µM in experiment [2]. Moreover, in experiment [3], the EC50 is 13.9 µM. Further, the EC90 in experiment [3] turned out to be 26 µM.

As for `O=C(O)c1cc(Cl)cc(C(=O)/C=C/c2ccc(Cl)cc2)c1O`, the IC50 came out at 85 µM in experiment [1] and 53 µM in experiment [2].

In the case of `O=C(O)c1cc(F)cc(C(=O)/C=C/c2ccc(Cl)cc2)c1O`, the 50% inhibitory concentration (IC50) in experiment [1] was found to be 36 µM; in experiment [2], 17 µM.

Consider `O=C(O)c1cc(Br)cc(C(=O)NCc2ccc(F)cc2)c1O`, for which the values for the IC50 in experiment [1] and in experiment [2] were > 100 µM and 15 µM, respectively.

For `O=C(O)c1cc(Br)cc(C(=O)/C=C/c2ccc(Cl)cc2)c1O`, the IC50 is 81 µM in experiment [1] and 12 µM in experiment [2].

As for `O=C(O)c1cc(Br)cc(C(=O)/C=C/c2ccccc2-c2ccco2)c1O`, the IC50 in experiment [1] was > 100 µM; in experiment [2] it was 16 µM.

Take `O=C(O)c1cc(Cl)cc(C(=O)/C=C/c2ccc(Cl)cc2Cl)c1O`: the IC50 in experiment [1] and in experiment [2] was > 100 µM each time.

For `O=C(O)c1cc(Cl)cc(C(=O)/C=C/c2c(Cl)ccc(Cl)c2Cl)c1O`, the IC50 is 77 µM in experiment [1] and 30 µM in experiment [2].

As to `O=C(O)c1cc(Cl)cc(C(=O)/C=C/c2ccc(Cl)c(Cl)c2)c1O`, the IC50 in experiment [1] was found to be 87 µM; in experiment [2], 41 µM.

For the molecule `O=C(O)c1cc(Br)cc(C(=O)/C=C/c2ccccc2OCc2ccccc2)c1O`, the IC50 is 21 µM in experiment [1] and 9 µM in experiment [2].

As to `O=C(/C=C/c1cc(Br)cc([N+](=O)[O-])c1O)c1cc(Cl)cc(Cl)c1Cl`, in experiment [1], the IC50 was > 333 µM.

Turning to `O=C(O)c1cc(Br)cc(C(=O)/C=C/c2cccc(Oc3ccc(Cl)cc3)c2)c1O`, the figures for the half-maximal inhibitory concentration (IC50) in experiment [1] and in experiment [2] were 25 µM and 18 µM, respectively.

As for `O=C(O)c1cc(Br)cc(C(=O)/C=C/c2c(Cl)cccc2Cl)c1O`, the IC50 turned out to be 52 µM in experiment [1] and 16 µM in experiment [2].

For the molecule `O=C(O)c1cc(Br)cc(C(=O)/C=C/c2ccccc2Cl)c1O`, the IC50 amounted to 52 µM in experiment [1] and 14 µM in experiment [2].

In the case of `O=C(O)c1cc(Br)cc(C(=O)/C=C/c2ccsc2)c1O`, the IC50 in experiment [1] came out at 30 µM; in experiment [2] it was 18 µM.

`O=C(O)c1cc(Br)cc(C(=O)/C=C/c2cccc(F)c2)c1O`: the half-maximal inhibitory concentration (IC50) in experiment [1] was 71 µM; in experiment [2], 59 µM.

Turning to `COc1ccc(/C=C/C(=O)c2cc(Br)cc(C(=O)O)c2O)c(Cl)c1OC`, the values for the IC50 in experiment [1] and in experiment [2] were > 100 µM and 76 µM, respectively.

`O=C(O)c1cc(F)cc(C(=O)/C=C/c2c(Cl)ccc(Cl)c2Cl)c1O`: the figures for the IC50 in experiment [1] and in experiment [2] were 82 µM and 39 µM, respectively.

As to `O=C(O)c1cc(Cl)cc(C(=O)/C=C/c2cc(Cl)cc(Cl)c2Cl)c1O`, the IC50 was 55 µM in experiment [1] and 17 µM in experiment [2].

As for `O=C(O)c1cc(Br)cc(C(=O)/C=C/c2c(Cl)ccc(Cl)c2Cl)c1O`, the IC50 in the experiment with PBMC was 22.7 µM; in experiment [1], 23 µM; with CCRF-CEM, 19 µM; in experiment [2], < 3.7 µM. For the same molecule, in experiment [3], the EC50 came out at 7.3 µM. Further, the EC90 in experiment [3] is 20.3 µM.

In the case of `O=C(O)c1cc(Br)cc(C(=O)/C=C/c2ccc(Oc3ccc(Cl)cc3)cc2)c1O`, the results for the IC50 in experiment [1] and in experiment [2] were 22 µM and 16 µM, respectively.

In the case of `O=C(O)c1cc(Br)cc(C(=O)/C=C/c2cc(Cl)cc(Cl)c2Cl)c1O`, the IC50 in experiment [1] was 20 µM; in experiment [2], 13 µM.

For `O=C(O)c1cc(Br)cc(C(=O)/C=C/c2cccc(Cl)c2)c1O`, the IC50 in experiment [1] stood at 45 µM; in experiment [2], 9 µM.

`O=C(O)c1cc(F)cc(C(=O)/C=C/c2cccc(Cl)c2Cl)c1O`: the IC50 stood at 55 µM in experiment [1] and 30 µM in experiment [2].

For `Cc1cn([C@H]2C[C@H](N=[N+]=[N-])[C@@H](CO)O2)c(=O)[nH]c1=O` [ZIDOVUDINE], the IC50 was > 100 µM in the experiment with PBMC and 56.1 µM in the experiment on CCRF-CEM. The EC50 in experiment [3] was determined as 0.0025 µM. Also, the EC90 in experiment [3] was 0.01 µM.

Consider `N#Cc1cc(Br)cc(C(=O)/C=C/c2c(Cl)ccc(Cl)c2Cl)c1O`, for which the IC50 in experiment [1] was > 100 µM; in experiment [2], 44 µM.

For the molecule `O=C(O)c1cc(F)cc(C(=O)/C=C/c2cc(Cl)cc(Cl)c2Cl)c1O`, the figures for the IC50 in experiment [1] and in experiment [2] were 33 µM and 15 µM, respectively.

In the case of `O=C(O)c1cc(Br)cc(C(=O)/C=C/c2cccc(Cl)c2Cl)c1O`, the figures for the IC50 in experiment [1] and in experiment [2] were 58 µM and 19 µM, respectively.

Consider `O=C(O)c1cc(Cl)cc(C(=O)/C=C/c2cccc(Cl)c2Cl)c1O`, for which the IC50 turned out to be 100 µM in experiment [1] and 92 µM in experiment [2].

Turning to `O=C(O)c1cc(Br)cc(C(=O)/C=C/c2ccc(Cl)c(Cl)c2)c1O`, the IC50 in experiment [1] amounted to 27 µM; in experiment [2], 14 µM.

As to `O=C(O)c1cc(Br)cc(C(=O)/C=C/c2ccccc2F)c1O`, the IC50 in experiment [1] worked out at 74 µM; in experiment [2], 32 µM.

In the case of `O=C(O)c1cc(F)cc(C(=O)/C=C/c2cc(Cl)ccc2Cl)c1O`, the IC50 amounted to 50 µM in experiment [1] and 29 µM in experiment [2].

For the molecule `O=C(O)c1cc(F)cc(C(=O)CCc2cc(Cl)ccc2Cl)c1O`, the IC50 in experiment [1] was > 100 µM; in experiment [2], 57 µM.

In the case of `O=C(O)c1cc(Br)cc(C(=O)/C=C/c2ccc3sccc3c2)c1O`, the IC50 came to 39.1 µM in the experiment with PBMC, 23 µM in experiment [1], 20.7 µM with CCRF-CEM and 11 µM in experiment [2]. Also, the EC50 in experiment [3] is 10.1 µM. The EC90 in experiment [3] was 24.3 µM.

Turning to `CCOc1ccc2ccccc2c1/C=C/C(=O)c1cc(Br)cc(C(=O)O)c1O`, the results for the IC50 in experiment [1] and in experiment [2] were 92 µM and 46 µM, respectively.

As for `COc1ccc(/C=C/C(=O)c2cc(Br)cc(C(=O)O)c2O)cc1OC1CCCC1`, the results for the IC50 in experiment [1] and in experiment [2] were 100 µM and 55 µM, respectively.

Regarding `Cc1cccc(C(=O)NCc2ccc(F)cc2)c1O`, the IC50 in experiment [1] and in experiment [2] was > 100 µM each time.

With `O=C(O)c1cc(Br)cc(C(=O)/C=C/c2cc(Cl)ccc2Cl)c1O`, the IC50 worked out at 47 µM in experiment [1] and 18 µM in experiment [2].
